Experimental data as given in patent US20090270259A1, “Novel Agrochemical Formulations” (priority 2005, published 2009).

Assay: Determination of the active substance content inside the film (UV-vis in THF, with and without ethanol wash)
Assay type: physicochemical
Conditions: Ecoflex film of Example 1, washed in 15 ml ethanol, UV-vis intensity ratio at 244 nm and 290 nm
Experimental: For applications for the controlled release of active substance, it is useful to determine the active substance content enclosed in the film more specifically.
For this, 27.3 mg of a film charged with chlorpyrifos and prepared by the procedure described above were dissolved in 15 ml of tetrahydrofuran (THF), which is a good solvent both for the active substance and also for the polymer. 0.5 milliliters of this solution were further diluted to a volume of 20 ml with THF; a UV-vis spectrum was recorded for the dilute solution.
In a comparison experiment, the film was firstly washed in 15 ml of ethanol and dried before being analyzed as described above in a solution of THF by means of UV-vis spectroscopy.
Reference spectra were measured a series of THF solutions which, as well as 33.5 mg/l of Ecoflex® comprising Ecoflex® pellets, also comprised chlorpyrifos in concentrations of from 0 to 24 mg/l. A suitable comparison parameter which clearly reflects the chlorpyrifos content is the intensity ratio I2/I1 of characteristic peaks in the UV-vis spectrum at the wavelengths 244 nm and 290 nm.

SMILES: CCOP(=S)(OCC)Oc1nc(Cl)c(Cl)cc1Cl [chlorpyrifos]
- chlorpyrifos used in the film preparation that remains in the film after washing with ethanol (enclosed fraction, released in a delayed manner) (dried, dissolved in THF): 24%
- active substance washed away with ethanol (fraction on the film surface, directly available): 76%
